From patent US6087509A, “1-Imidazolidinyl-phenyls” (Hoechst Marion Roussel, priority 1995, dated 2000)

How the values were obtained:
[1] = tested on: prostate in an intact male rat; assay: Reducing effect of the weight of the prostate in an intact male rat (systemic antiandrogen activity); assay type: in vivo; details: day 0 to 4 and day 7 to 10, intact male Sprague Dawley rats, compared to solvent only
Procedure: 3) Determination of the Reducing Effect of the Weight of the Prostate in an Intact Male Rat
The systemic activity of an antiandrogen is determined by the reduction in the weight of the prostate which it brings about in an intact animal.
The animals used are male rats of the Sprague Dawley strain weighing about 200 g, 7 weeks old, originating from the Iffa Credo breed (France). The experiment is carried out over two weeks, except for the weekend.
The product can be administered by oral, sub-cutaneous or percutaneous route.
The solvents used are then: by oral route: 0.5% aqueous solution of methylcellulose under a volume of 5 ml/kg, by sub-cutaneous route: wheatgerm oil in 10% ethanol under a volume of 0.2 ml/kg, and by percutaneous route: ethanol under a volume of 50 ul on previously-shaved skin.
The treatment is carried out from day 0 to day 4 then (after the weekend) from day 7 to day 10. The animals are sacrificed the day after the last treatment by bleeding the carotid artery, the prostates are removed and fixed in demineralized water containing 10% formol for 72 hours. They are then dissected and weighed.

[2] = tested on: costovertebral gland of the hamster; assay: Reducing effect on the costo-vertebral gland of the hamster (topical antiandrogen activity); assay type: in vivo; details: topical on right-hand C.V.G., 3 weeks (14 administrations), male hamsters, reduction in surface area
Procedure: 2) Determination of the Reducing Effect on the Costo-vertebral Gland of the Hamster
The local activity (topical) of an antiandrogen is determined by the reduction which it brings about in the surface area of the costovertebral gland of the hamster (hereafter C.V.G.), an androgen-dependent organ situated on the flanks of the animal.
The animals are male hamsters weighing about 140 g, 14 weeks old and originating from the Charles River breed (USA), they are subjected to a long photoperiod (16 hours of light, 8 hours of darkness). The animals are treated every day, except for the weekend, for 3 weeks (14 administrations). The product to be tested is applied, by topical route, on the right-hand C.V.G., the left-hand one serving as the control. The surface of the gland has been shaved beforehand. The animals are sacrificed by bleeding the carotid artery 24 hours after the last treatment. The C.V.G.'s are removed, measured and weighed. The local activity of a product is determined by the % of reduction in the surface area of the C.V.G. which it induces in comparison with the 1st day of the experiment and compared to the animals treated with solvent only.

androgen receptor = biological target: T1, androgen receptor (Rattus norvegicus, UniProt P15207); assay: Affinity for the androgen receptor (relative bond affinity, tritiated testosterone displacement in rat prostate cytosol); assay type: binding
T1 construct: from tissue; host or cells: prostate cytosol of castrated male Sprague Dawley rats
T1 sequence (P15207 1-902): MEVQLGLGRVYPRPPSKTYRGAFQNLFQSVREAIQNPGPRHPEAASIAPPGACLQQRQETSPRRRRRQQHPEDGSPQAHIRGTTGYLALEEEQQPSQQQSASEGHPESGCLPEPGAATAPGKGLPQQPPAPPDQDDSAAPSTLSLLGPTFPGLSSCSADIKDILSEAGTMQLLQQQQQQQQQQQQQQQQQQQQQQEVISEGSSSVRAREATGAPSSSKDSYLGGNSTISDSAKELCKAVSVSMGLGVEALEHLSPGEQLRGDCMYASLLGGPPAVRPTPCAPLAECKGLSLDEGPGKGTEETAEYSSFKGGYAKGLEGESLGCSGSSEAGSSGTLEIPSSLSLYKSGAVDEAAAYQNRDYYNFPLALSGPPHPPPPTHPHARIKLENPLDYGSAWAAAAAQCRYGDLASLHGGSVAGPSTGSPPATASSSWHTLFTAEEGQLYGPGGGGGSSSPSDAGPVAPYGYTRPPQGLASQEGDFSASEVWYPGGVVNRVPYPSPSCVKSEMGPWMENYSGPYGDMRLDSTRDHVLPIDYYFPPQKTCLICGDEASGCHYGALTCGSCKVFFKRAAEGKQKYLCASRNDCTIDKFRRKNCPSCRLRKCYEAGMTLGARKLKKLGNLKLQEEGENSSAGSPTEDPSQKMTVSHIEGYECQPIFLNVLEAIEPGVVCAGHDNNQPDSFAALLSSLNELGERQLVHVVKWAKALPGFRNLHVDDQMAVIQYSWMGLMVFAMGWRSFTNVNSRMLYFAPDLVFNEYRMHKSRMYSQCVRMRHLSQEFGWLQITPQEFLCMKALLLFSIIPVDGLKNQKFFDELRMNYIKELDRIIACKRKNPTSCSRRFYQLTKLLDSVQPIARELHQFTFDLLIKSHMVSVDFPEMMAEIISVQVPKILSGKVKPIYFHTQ
Procedure: The straight line of the equation I50 =(B/Tmax+B/Tmin)/2 is determined.

Row | Structure (SMILES) | % reduction in the prostate weight with 3 mg/kg P.O. [1] | % CVG reduction with 3 μg/jour [2] | RBA: Incubation 24 hours (androgen receptor)
1 | N#Cc1ccc(N2C(=O)N(CCF)C(CF)(CF)C2=O)cc1C(F)(F)F [Example 1, 4-(4,4-bis(fluoromethyl)-2,5-dioxo-3-(2-fluoroethyl)-1-imidazolidinyl)-2-(trifluoromethyl)-benzonitrile] | -27% | -32% | 42
2 | CCN1C(=O)N(c2ccc(C#N)c(C(F)(F)F)c2)C(=O)C1(CF)CF [Example 3, 4-(2,5-dioxo-4,4-bis(fluoromethyl)-3-ethyl-1-imidazolidinyl)-2-(trifluoromethyl)-benzonitrile] | -20% | -33% | 43
3 | CC1(C)C(=O)N(c2ccc(C#N)c(C(F)(F)F)c2)C(=O)N1CC#CCO [Example 8, 4-(3-(4-hydroxy-2-butyn-1-yl)-4,4-dimethyl-2,5-dione-1-imidazolidinyl)-2-(trifluoromethyl)-benzonitrile] | -35% |  | 
4 | N#Cc1ccc(N2C(=O)N(CCCCO)C3(CCCCC3)C2=O)cc1C(F)(F)F [Example 9, 4-[2,4-dioxo-1-(4-hydroxybutyl)-1,3-diazaspiro-[4.5]decan-3-yl]-2-(trifluoromethyl)-benzonitrile] |  | -25% | 
